Reference: PMC8486167, “Orally Active Peptide Vector Allows Using Cannabis to Fight Pain While Avoiding Side Effects” (Journal of Medicinal Chemistry, 2021)
Square brackets hold non-standard residues; d marks the D form. Ends that are not written are not given here. Peptide text beside a SMILES is read from it.

Key:
CB1R–5HT2AR heteromer [1] = target: T1, CB1R–5HT2AR heteromer (Homo sapiens, UniProt P28223); assay: cAMP production (HTRF), decrease in FK-induced cAMP; assay type: cell-based; conditions: for FK-induced cAMP production after agonist: agonist 100 nM, all groups
T1 construct: expressed in transfected cells; host or cells: HEK-293T / HEK-293
Experimental: Sequences encoding YFP Venus protein amino acid residues 1–155 and 156–238 were subcloned in the pcDNA3.1 vector to obtain the YFP Venus hemitruncated proteins. The human cDNAs for 5HT2AR and CB1R, cloned into the pcDNA3.1, were amplified and subcloned as described[18] to give 5HT2AR-cYFP and CB1R-nYFP. Human embryonic kidney (HEK-293T) cells obtained from ATCC were grown in Dulbecco’s modified Eagle’s medium (DMEM) (Gibco) supplemented with 2 mM L-glutamine, 100 μg/mL sodium pyruvate, 100 U/mL penicillin/streptomycin, MEM nonessential amino acid solution (1/100), and 5% (v/v) heat-inactivated fetal bovine serum (FBS) (all supplements from Invitrogen, Paisley, Scotland, UK). Cells were maintained at 37 °C in an atmosphere of 5% CO2. HEK-293T cells were transfected with the corresponding fusion protein cDNA by the polyethylenimine (Sigma) method, as described before.[18]
For cAMP production, homogeneous time-resolved fluorescence energy transfer (HTRF) assays were performed as previously described.[18] […] Fluorescence at 665 nm was analyzed on a PHERAstar Flagship microplate reader equipped with an HTRF optical module (BMG Lab technologies, Offenburg, Germany).

trypsin = conditions: 24 h vs 0 h, HPLC main peak area, mean ± SEM, n = 2
Experimental: Peptide samples, incubated with trypsin, were collected and analyzed as before.[60] For human serum digestion, peptide [1000 μM, 2% dimethyl sulfoxide (DMSO) in filtered H2O] was added to human serum (Sigma, St Louis, Missouri) in a 1:1 ratio and incubated at 37 °C with gentle shaking. At 0 min and 24 h, aliquots were taken and proteolysis was stopped with CH3CN (80% in filtered H2O), chilled at 0 °C for 15 min to precipitate serum proteins, and centrifuged at 13,000 rpm at 4 °C for 10 min. The supernatant was collected and analyzed by analytical RP-HPLC and LC–MS as described before,[60] with a 0–95% linear gradient of CH3CN over 15 min. All experiments are performed in duplicate and data were fitted with GraphPad Prism.

mice [2] = assay: Immunogenicity: mice immunization and serum ELISA; assay type: in vivo, mouse; conditions: CD-1 mice, IV, 5 consecutive days and boost at day 15; 17 at 100 μg/dose, 17-KLH at 30 μg; sera days 0, 9, 19; plates coated with 17-BSA
Experimental: Experiments were performed at the ICTS “NANBIOSIS” Custom Antibody Service (CAbS, CIBER-BBN, IQAC-CSIC). The immune response to 17 was assessed in outbred Swiss ICR (CD-1) mice strain Hsd:ICR (CD-1) (Envigo RMS, The Netherlands), following the immunization schedule in Figure 7. Animals were housed under standard conditions in the CID-CSIC animal facility. Animal experimental procedures were conducted in accordance with protocols approved by CSIC Committee on Ethics of Animal Experiments and Biosafety, as well as the Spanish National Committee on Ethics and Animal Welfare. Briefly, a first group of 10 female mice received IV doses of 17 (200 μL, 20 mg/kg, PBS + 2% DMSO), a second group of 5 mice received IV doses of 17-KLH conjugate (200 μL, 30 μg) and a third group of 5 mice received IVdoses of PBS (200 μL, negative control). The 17-KLH conjugate, administered with Freund’s adjuvant, was also used to generate polyclonal antibody (positive control) (data not shown). Serum samples were collected by tail vein bleeds on days 0, 9, and 19. […] The peptide-specific humoral response was determined by indirect ELISA. […] Color development was stopped with 4 N H2SO4 (50 μL/well) after 30 min at r.t., and absorbance read at 450 nm. Titers in a log10 scale were expressed as the reciprocal of the last dilution giving the absorbance recorded in the control wells (serum at day 0) plus 2 SD.

[3] = tested on: bEnd.3 brain endothelial cells; conditions: 5(6)-carboxyfluorescein-labeled peptides; bEnd.3 cells; fluorescence in basolateral chamber after 24 h; n = 3–6
Experimental: bEnd.3 brain endothelial cells (ATCC CRL-2299TM) were grown as a monolayer in DMEM supplemented with 10% FBS and 1% penicillin/streptomycin solution (Gibco, USA). Cells were cultured in a humidified atmosphere of 95% air and 5% CO2 at 37 °C (MCO-18AIC (UV), Sanyo, Japan), with daily medium replacement.
The translocation capabilities of 5(6)-carboxyfluorescein-labeled peptides were determined using a protocol previously described.[30],[31] After the experiment, the integrity of the endothelial barrier was checked by measuring the permeability of a 4 kDa fluorescently labeled dextran (FD4) as previously described.[25] Experiments were carried out on different days using independently grown cell cultures.

mice [4] = assay: Novel object recognition test (THC memory impairment); assay type: in vivo; conditions: mouse; THC 3 mg/kg IP
Experimental: On day 1 (Habituation), mice were habituated for 9 min to the V-maze in which the task was performed. The following day (Training), mice were placed in the V-maze for 9 min, two identical objects were presented and the time that the mice spent exploring each object was recorded. Mice were again placed in the maze 24 h later for 9 min (Test), one of the familiar objects was replaced with a novel object and the total time spent exploring each of the two objects (novel and familiar) was recorded. Object exploration was defined as the orientation of the nose to the object at less than 2 cm. A discrimination index was calculated as the difference between the time spent exploring the novel or familiar object divided by the total time exploring the two objects. A higher discrimination index is considered to reflect greater memory retention for the familiar object.
Thirty min after peptide administration, mice received an IP injection of vehicle (5% v/v of ethanol, 5% v/v of Cremophor-EL, and 90% v/v saline) or 3 mg/kg of THC dissolved in vehicle.

mice [5] = assay: Hot-plate test (THC-induced analgesia); conditions: mouse; THC 10 mg/kg IP
CB1R–5HT2AR heteromer [6] = target: T1, CB1R–5HT2AR heteromer; assay: ERK-1/2 phosphorylation assay (α-screen); assay type: cell-based
Experimental: Phosphorylation was determined in white ProxiPlate 384-well microplates (PerkinElmer Life Sciences) by the α-screen bead-based technology using the amplified luminescent proximity homogeneous assay kit (PerkinElmer Life Sciences) and using the Enspire multimode plate reader (PerkinElmer Life Sciences). Phosphorylation is expressed in arbitrary units, ALPHAcounts, as measured by light emission at 520–620 nm of the acceptor beads.

[7] = RIM 1 μM vs DOI 100 nM, MDL 300 nM vs WIN 100 nM, no peptide

T1 sequence (P28223 whole entry, one chain of several): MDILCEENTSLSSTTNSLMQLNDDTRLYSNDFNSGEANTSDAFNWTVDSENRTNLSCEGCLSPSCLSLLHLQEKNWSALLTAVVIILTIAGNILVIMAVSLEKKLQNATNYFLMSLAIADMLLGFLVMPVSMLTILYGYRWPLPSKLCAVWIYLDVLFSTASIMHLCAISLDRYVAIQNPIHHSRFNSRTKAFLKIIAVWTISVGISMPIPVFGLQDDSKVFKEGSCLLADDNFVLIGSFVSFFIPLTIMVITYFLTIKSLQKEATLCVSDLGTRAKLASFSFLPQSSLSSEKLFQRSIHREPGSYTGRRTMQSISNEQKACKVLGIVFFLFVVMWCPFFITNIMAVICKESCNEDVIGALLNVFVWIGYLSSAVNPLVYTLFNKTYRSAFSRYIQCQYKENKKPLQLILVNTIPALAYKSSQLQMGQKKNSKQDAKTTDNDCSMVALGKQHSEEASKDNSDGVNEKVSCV

COc1cc(CC(C)N)c(OC)cc1I (stereo not shown) [DOI, 2,5-dimethoxy-4-iodoamphetamine]
FK-induced cAMP production after agonist (CB1R–5HT2AR heteromer [1]; 0.5 μM FK): reduced cAMP production

VYAYMYILWAGILKRW-NH2 [compound 5]
proteolytic stability: unaltered peptide remaining after trypsin incubation (trypsin): poor survival

Cc1c(C(=O)c2cccc3ccccc23)c2cccc3c2n1[C@H](CN1CCOCC1)CO3 [WIN, WIN 55,212-2]
FK-induced cAMP production after agonist (CB1R–5HT2AR heteromer [1]; 0.5 μM FK): reduced cAMP production

VYAYMYILWSKSKSK-NH2 [compound 6]
proteolytic stability: unaltered peptide remaining after trypsin incubation (trypsin): poor survival

AGILKRWKTLVLILVV-NH2 [compound 9]
proteolytic stability: unaltered peptide remaining after trypsin incubation (trypsin): poor survival

CC[C@@H](C)[C@@H](NC(=O)CNC(=O)[C@@H](C)NC(=O)[C@H](NC(=O)[C@@H](Cc1ccc(O)cc1)NC(=O)[C@@H](C)NC(=O)[C@@H](Cc1ccc(O)cc1)NC(=O)[C@@H](CCSC)NC(=O)[C@@H](Cc1ccc(O)cc1)NC(=O)[C@H](NC(=O)[C@@H](CC(C)C)NC(=O)[C@H](N)Cc1c[nH]c2ccccc12)[C@H](C)CC)C(C)C)C(=O)N[C@H](CC(C)C)C(=O)N[C@H](CCCCN)C(=O)N[C@H](CCCNC(=N)N)C(=O)N[C@H](Cc1c[nH]c2ccccc12)C(N)=O [compound 17] (H-[dW][dL][dI][dY][dM][dY][dA][dY][dV][dA]G[dI][dL][dK][dR][dW]-NH2)
immunogenicity: peptide-specific antibody response (ELISA titers) (mice [2]): did not evoke any detectable immune response

CC[C@@H](C)[C@@H](NC(=O)CNC(=O)[C@@H](C)N)C(=O)N[C@H](CC(C)C)C(=O)N[C@H](CCCCN)C(=O)N[C@H](CCCNC(=N)N)C(=O)N[C@H](Cc1c[nH]c2ccccc12)C(=O)N[C@@H](CCCCN)C(=O)N[C@H](C(=O)N[C@@H](CC(C)C)C(=O)N[C@H](C(=O)N[C@@H](CC(C)C)C(=O)N[C@H](C(=O)N[C@@H](CC(C)C)C(=O)N[C@H](C(=O)N[C@H](C(N)=O)C(C)C)C(C)C)[C@@H](C)CC)C(C)C)[C@@H](C)O [compound 15] (H-[dA]G[dI][dL][dK][dR][dW]KTLVLILVV-NH2)
translocation across the transwell BBB model [3]: translocated more efficiently than 14 and 16

SKSKSKKTLVLILVV-NH2 [compound 10]
proteolytic stability: unaltered peptide remaining after trypsin incubation (trypsin): poor survival

CCCCCc1cc(O)c2c(c1)OC(C)(C)[C@@H]1CCC(C)=C[C@@H]21 [THC, Δ^9-tetrahydrocannabinol]
THC effect in novel object recognition test (mice [4]): memory impairment
THC effect in hot-plate test (mice [5]): analgesic effects

Cc1c(C(=O)NN2CCCCC2)nn(-c2ccc(Cl)cc2Cl)c1-c1ccc(Cl)cc1 [RIM, rimonabant]
antagonist block of the partner receptor's agonist signal (cross-antagonism, cAMP) (CB1R–5HT2AR heteromer [1]; [7]): blocked the decrease in FK-induced cAMP or the increase in pERK triggered by the 5HT2AR agonist DOI
antagonist block of the partner receptor's agonist signal (cross-antagonism, pERK) (CB1R–5HT2AR heteromer [6]; [7]): blocked the decrease in FK-induced cAMP or the increase in pERK triggered by the 5HT2AR agonist DOI

CC[C@@H](C)[C@@H](NC(=O)CNC(=O)[C@@H](C)NC(=O)[C@H](Cc1c[nH]c2ccccc12)NC(=O)[C@H](CC(C)C)NC(=O)[C@@H](NC(=O)[C@H](Cc1ccc(O)cc1)NC(=O)[C@H](CCSC)NC(=O)[C@H](Cc1ccc(O)cc1)NC(=O)[C@H](C)NC(=O)[C@H](Cc1ccc(O)cc1)NC(=O)[C@@H](N)C(C)C)[C@@H](C)CC)C(=O)N[C@H](CC(C)C)C(=O)N[C@H](CCCCN)C(=O)N[C@H](CCCNC(=N)N)C(=O)N[C@H](Cc1c[nH]c2ccccc12)C(N)=O [compound 13] (H-VYAYMYILW[dA]G[dI][dL][dK][dR][dW]-NH2)
translocation across the transwell BBB model [3]: translocated more efficiently than 14 and 16

LIKTVFAFCSMLCLLNSTVNPIIYALRGRKKRRQRRR [TM7-Tat, peptide TM7-Tat, used as a negative control]
elimination of bidirectional cross-antagonism (FK-induced cAMP) (CB1R–5HT2AR heteromer [1]; DOI 100 nM, WIN 100 nM, MDL 300 nM, RIM 1 μM, 0.5 μM FK, n = 3–6): not observed with TM7-Tat
influence on G protein coupling preference of 5HT2AR (CB1R–5HT2AR heteromer [1]; FK-induced cAMP, 0.5 μM FK, WIN 100 nM or DOI 100 nM, transfected HEK-293T cells, n = 3–6): 5HT2AR remains Gi-coupled in the presence of interfering peptides
elimination of bidirectional cross-antagonism (pERK) (CB1R–5HT2AR heteromer [6]; DOI 100 nM, WIN 100 nM, MDL 300 nM, RIM 1 μM, % of basal, n = 4–9): not observed with TM7-Tat
